ChEMBL document CHEMBL2385067, “Preparation of S14161 and its analogues and the discovery of 6-bromo-8-ethoxy-3-nitro-2H-chromene as a more potent antitumor agent in vitro” (2013)
Calls of active or inactive are those of the source. The calls are words filed in the database; no cut-off is given here.

Tests used:
LP-1 = experiment: Cytotoxicity against human LP-1 cells after 24 to 72 hrs by SRB assay; type: functional
K562 = experiment: Cytotoxicity against human K562 cells after 24 to 72 hrs by SRB assay; type: functional
MDA-MB-231 = experiment: Cytotoxicity against human MDA-MB-231 cells after 24 to 72 hrs by SRB assay; type: functional
SPCA1 = experiment: Growth inhibition of human SPCA1 cells at 20 uM after 72 hrs by SRB assay; type: functional, cell-based
H47D [1] = experiment: Growth inhibition of human H47D cells at 20 uM after 72 hrs by SRB assay; type: functional, cell-based
B16 = experiment: Cytotoxicity against mouse B16 cells after 24 to 72 hrs by SRB assay; type: functional
HeLa [2] = experiment: Growth inhibition of human HeLa cells at 5 uM after 24 hrs by SRB assay; type: functional, cell-based
HeLa [3] = experiment: Growth inhibition of human HeLa cells at 20 uM after 24 hrs by SRB assay; type: functional
A549 [4] = experiment: Induction of apoptosis in human A549 cells assessed as activation of caspase-3 at 10 uM; type: functional, cell-based
SK-OV-3 [5] = experiment: Inhibition of PI3K in human SKOV3 cells assessed as inhibition of EGF1-induced AKT phosphorylation up to 20 uM after 24 hrs by Western blot analysis; type: cell-based
HeLa [6] = experiment: Growth inhibition of human HeLa cells at 20 uM after 72 hrs by SRB assay; type: functional, cell-based
A549 [7] = experiment: Growth inhibition of human A549 cells at 20 uM after 72 hrs by SRB assay; type: functional, cell-based
PC-3 = experiment: Growth inhibition of human PC3 cells at 20 uM after 72 hrs by SRB assay; type: functional, cell-based
A549 [8] = experiment: Growth inhibition of human A549 cells at 5 to 20 uM after 24 hrs by SRB assay; type: functional, cell-based
NCI-H460 = experiment: Growth inhibition of human H460 cells at 20 uM after 72 hrs by SRB assay; type: functional, cell-based
HeLa [9] = experiment: Inhibition of PI3K in human HeLa cells assessed as inhibition of EGF1-induced AKT phosphorylation up to 20 uM after 24 hrs by Western blot analysis; type: cell-based
HUVEC = experiment: Antiangiogenic activity in HUVEC assessed as inhibition of cell migration by measuring area of wounded gap at 5 uM after 8 to 24 hrs by wound healing assay; type: functional, Homo sapiens; design: scale not given: the % may be the effect or the level left
SK-OV-3 [10] = experiment: Growth inhibition of human SKOV3 cells at 20 uM after 72 hrs by SRB assay; type: functional, cell-based
[11] = Cytotoxicity against human U87 cells after 24 to 72 hrs by SRB assay; type: functional, U-87MG ATCC; settings: U-87 MG
H47D [12] = experiment: Inhibition of PI3K in human H47D cells assessed as inhibition of EGF1-induced AKT protein level up to 20 uM after 24 hrs by Western blot analysis; type: cell-based
HeLa [13] = experiment: Growth inhibition of human HeLa cells after 24 hrs by SRB assay; type: functional, cell-based
HeLa [14] = experiment: Inhibition of PI3K in human HeLa cells assessed as inhibition of EGF1-induced AKT protein level up to 20 uM after 24 hrs by Western blot analysis; type: cell-based
A549 [15] = experiment: Inhibition of PI3K in human A549 cells assessed as inhibition of EGF1-induced AKT phosphorylation up to 20 uM after 24 hrs by Western blot analysis; type: cell-based
H47D [16] = experiment: Inhibition of PI3K in human H47D cells assessed as inhibition of EGF1-induced AKT phosphorylation up to 20 uM after 24 hrs by Western blot analysis; type: cell-based
A549 [17] = experiment: Induction of apoptosis in human A549 cells assessed as activation of caspase-3 at 5 uM; type: functional, cell-based
A549 [18] = experiment: Inhibition of PI3K in human A549 cells assessed as inhibition of EGF1-induced AKT protein level up to 20 uM after 24 hrs by Western blot analysis; type: cell-based
SK-OV-3 [19] = experiment: Inhibition of PI3K in human SKOV3 cells assessed as inhibition of EGF1-induced AKT protein level up to 20 uM after 24 hrs by Western blot analysis; type: cell-based

Row | Compound | GI50 (LP-1) [µM] | GI50 (K562) [µM] | GI50 (MDA-MB-231) [µM] | growth inhibition (GI) (SPCA1) | growth inhibition (GI) (H47D [1]) | GI50 (B16) [µM] | growth inhibition (GI) (HeLa [2]) | Activity (A549 [4]) | inhibition (SK-OV-3 [5]) | growth inhibition (GI) (HeLa [6]) | growth inhibition (GI) (A549 [7]) | growth inhibition (GI) (PC-3) | growth inhibition (GI) (A549 [8]) | growth inhibition (GI) (NCI-H460) | inhibition (HeLa [9]) | Activity (HUVEC) [%] | growth inhibition (GI) (SK-OV-3 [10]) | GI50 [11] [µM] | other results
1 | CCOc1cccc2c1OCC([N+](=O)[O-])=C2 | 0.64 | 1.68 | – | – | – | – | – | – | – | – | – | – | – | – | – | – | – | – | –
2 | CCOc1cccc2c1OC(c1ccc(F)cc1)C([N+](=O)[O-])=C2 (centres undefined) | 0.57 | 1.24 | 8.53 | Active | Active | 23.3 | Active | Active | Active | Active | Active | Active | Active | Active | Active | <50 | Active | 18.7 | growth inhibition (GI) (HeLa [3]): Active
3 | CCOc1cccc2c1OC(c1ccc(C#N)cc1)C([N+](=O)[O-])=C2 (centres undefined) | 0.44 | 1.02 | – | – | – | – | – | – | – | – | – | – | – | – | – | – | – | – | –
4 | CCOc1cccc2c1OC(c1ccccc1)C([N+](=O)[O-])=C2 (centres undefined) | 0.96 | 1.18 | – | – | – | – | – | – | – | – | – | – | – | – | – | – | – | – | –
5 | CCOc1cc(Br)cc2c1OCC([N+](=O)[O-])=C2 | 0.33 | 0.92 | 2.03 | Active | Active | 20.4 | Active | Active | Active | Active | Active | Active | Active | Active | Active | 20 | Active | 12.6 | inhibition (H47D [12]): inactive; inhibition of growth at 20 µM (HeLa [3]; read-out: GI): > 90%; growth inhibition (GI) (HeLa [13]): Dose-dependent effect; inhibition (HeLa [14]): inactive; inhibition (A549 [15]): Active; inhibition (H47D [16]): Active; Activity (A549 [17]): Active; inhibition (A549 [18]): inactive; inhibition (SK-OV-3 [19]): inactive
6 | CCOc1cccc2c1OC(c1ccc(OC)cc1)C([N+](=O)[O-])=C2 (centres undefined) | 3.16 | 4.86 | – | – | – | – | – | – | – | – | – | – | – | – | – | – | – | – | –
